Patent publication US9944646B2, “Bicyclic azaheterocyclobenzylamines as PI3K inhibitors” (Incyte Corporation, priority 2012, dated 2018)

Experiments:
PI3Kδ = PI3Kδ (Homo sapiens (Human), UniProt O00329); test: PI3K Enzyme Assay (Example A2), [γ-33P]ATP filter plate; format: biochemical
Outline: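 Recombinant PI3Kδ at 2.9 nM with 50 µM PIP2 in MOPS pH 6.7, MgCl2, DTT, CHAPS, 0.5% DMSO; started with 1000 μM ATP including [γ-33P]ATP, 180 min at room temperature. Phosphorylated product captured on PVDF filter plates and scintillation-counted; IC50 from percent-control activity vs log concentration.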

SUDHL-6 cells = test: SUDHL-6 Cell Proliferation Assay (Example B3); format: cell-based; settings: 3 days, Cell Titer-GLO
Procedure: Example B3: SUDHL-6 Cell Proliferation Assay
SUDHL-6 cell line (diffuse large B cell lymphoma) was purchased from ATCC (Manassas, Va.) and maintained in the culture medium recommended (RPMI and 10% FBS). To measure the anti-proliferation activity of the compounds through ATP quantitation, the SUDHL-6 cells was plated with the culture medium (5000 cells/well/per 200 μl) into 96-well polystyrene clear black tissue culture plate (Greiner-bio-one through VWR, NJ) in the presence or absence of a concentration range of test compounds. After 3 days, Cell Titer-GLO Luminescent (Promega, Madison, Wis.) cell culture agent was added to each well for 10 minutes at room temperature to stabilize the luminescent signal. This determines the number of viable cells in culture based on quantitation of the ATP present, which signals the presence of metabolically active cells. Luminescence was measured with the TopCount 384 (Packard Bioscience through Perkin Elmer, Boston, Mass.). […] IC50 data for the Examples is presented in Table 4 determined by the assay of Example B3.

PI3Kδ, sequence (O00329 whole entry): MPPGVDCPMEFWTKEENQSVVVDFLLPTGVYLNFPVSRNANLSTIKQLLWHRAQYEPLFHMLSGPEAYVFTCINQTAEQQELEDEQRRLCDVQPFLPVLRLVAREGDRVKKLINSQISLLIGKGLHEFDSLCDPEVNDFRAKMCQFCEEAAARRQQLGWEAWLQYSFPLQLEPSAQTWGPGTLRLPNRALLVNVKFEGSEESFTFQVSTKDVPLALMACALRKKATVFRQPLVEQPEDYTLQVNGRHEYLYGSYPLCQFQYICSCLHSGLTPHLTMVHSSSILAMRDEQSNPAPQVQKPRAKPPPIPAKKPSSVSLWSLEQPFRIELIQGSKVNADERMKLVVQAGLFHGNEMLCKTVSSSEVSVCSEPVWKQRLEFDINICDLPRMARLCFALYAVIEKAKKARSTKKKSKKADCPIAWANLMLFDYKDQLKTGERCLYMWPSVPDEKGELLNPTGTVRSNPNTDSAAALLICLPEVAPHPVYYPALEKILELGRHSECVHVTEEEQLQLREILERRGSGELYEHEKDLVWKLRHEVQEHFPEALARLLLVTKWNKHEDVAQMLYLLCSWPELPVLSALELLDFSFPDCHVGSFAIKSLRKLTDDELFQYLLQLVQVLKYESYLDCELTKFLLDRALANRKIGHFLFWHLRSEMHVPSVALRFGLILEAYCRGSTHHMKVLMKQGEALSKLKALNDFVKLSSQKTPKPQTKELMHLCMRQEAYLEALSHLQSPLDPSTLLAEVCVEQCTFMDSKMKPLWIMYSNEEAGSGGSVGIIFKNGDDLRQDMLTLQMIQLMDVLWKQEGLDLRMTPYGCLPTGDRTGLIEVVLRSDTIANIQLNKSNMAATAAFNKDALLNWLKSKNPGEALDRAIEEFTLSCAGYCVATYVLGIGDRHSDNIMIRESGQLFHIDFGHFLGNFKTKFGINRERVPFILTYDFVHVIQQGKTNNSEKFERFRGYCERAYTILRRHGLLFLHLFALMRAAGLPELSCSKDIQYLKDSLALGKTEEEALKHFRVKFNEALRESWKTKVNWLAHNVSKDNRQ
PI3Kδ, sequence (P27986 whole entry partner): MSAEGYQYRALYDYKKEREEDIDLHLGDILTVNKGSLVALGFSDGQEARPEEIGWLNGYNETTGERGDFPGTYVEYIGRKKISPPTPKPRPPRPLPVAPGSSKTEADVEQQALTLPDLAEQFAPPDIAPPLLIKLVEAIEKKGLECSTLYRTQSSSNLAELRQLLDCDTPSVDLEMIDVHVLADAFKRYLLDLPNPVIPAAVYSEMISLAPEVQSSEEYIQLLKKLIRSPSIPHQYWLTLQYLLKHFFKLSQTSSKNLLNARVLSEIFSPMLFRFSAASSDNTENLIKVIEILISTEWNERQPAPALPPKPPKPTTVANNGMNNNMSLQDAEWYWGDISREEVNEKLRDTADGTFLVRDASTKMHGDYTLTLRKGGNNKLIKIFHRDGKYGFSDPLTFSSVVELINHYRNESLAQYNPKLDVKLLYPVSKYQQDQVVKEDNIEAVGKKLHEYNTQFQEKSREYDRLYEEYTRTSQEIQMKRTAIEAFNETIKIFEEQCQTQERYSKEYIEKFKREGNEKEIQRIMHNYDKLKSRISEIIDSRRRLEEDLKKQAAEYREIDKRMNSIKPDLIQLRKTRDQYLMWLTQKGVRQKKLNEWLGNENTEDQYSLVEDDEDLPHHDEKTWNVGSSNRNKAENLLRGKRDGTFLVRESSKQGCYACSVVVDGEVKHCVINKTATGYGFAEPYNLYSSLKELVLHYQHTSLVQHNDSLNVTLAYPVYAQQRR

| IC50 (PI3Kδ) [nM] | IC50 (SUDHL-6 cells; Homo sapiens, SU-DHL-6, 72 h) [nM] | IC50 (SUDHL-6 cells) [nM] | Structure (SMILES) |
| --- | --- | --- | --- |
| ≤ 100 | ≤ 500 |  | Cc1nn(C(C)c2cc(Cl)c(F)c3c2OC(C)CN(S(C)(=O)=O)C3)c2ncnc(N)c12 (single isomer, unassigned) [Example 37, 1-{1-[7-Chloro-6-fluoro-2-methyl-4-(methylsulfonyl)-2,3,4,5-tetrahydro-1,4-benzoxazepin-9-yl]ethyl}-3-methyl-1H-pyrazolo[3,4-d]pyrimidin-4-amine] |
| ≤ 100 |  | ≤ 500 | Cc1nn(C(C)c2cc(Cl)c(F)c3c2OC(C)CN(S(C)(=O)=O)C3)c2ncnc(N)c12 (single isomer, unassigned) [Example 40, 1-{1-[7-Chloro-6-fluoro-2-methyl-4-(methylsulfonyl)-2,3,4,5-tetrahydro-1,4-benzoxazepin-9-yl]ethyl}-3-methyl-1H-pyrazolo[3,4-d]pyrimidin-4-amine] |
| ≤ 100 |  | ≤ 500 | CC(=O)N1CC(N2Cc3c(C#N)c(Cl)cc(C(C)n4nc(C)c5c(N)ncnc54)c3OC(C)C2)C1 (single isomer, unassigned) [Example 49, 4-(1-Acetylazetidin-3-yl)-9-[1-(4-amino-3-methyl-1H-pyrazolo[3,4-d]pyrimidin-1-yl)ethyl]-7-chloro-2-methyl-2,3,4,5-tetrahydro-1,4-benzoxazepine-6-carbonitrile] |
| ≤ 100 | ≤ 500 |  | Cc1nn(C(C)c2cc(Cl)c(C#N)c3c2OC(C)CN(CCO)C3)c2ncnc(N)c12 (single isomer, unassigned) [Example 62, 9-[1-(4-Amino-3-methyl-1H-pyrazolo[3,4-d]pyrimidin-1-yl)ethyl]-7-chloro-4-(2-hydroxyethyl)-2-methyl-2,3,4,5-tetrahydro-1,4-benzoxazepine-6-carbonitrile] |
| ≤ 100 |  | ≤ 500 | Cc1nn(C(C)c2cc(Cl)c(C#N)c3c2OC(C)CN(CCO)C3)c2ncnc(N)c12 (single isomer, unassigned) [Example 63, 9-[1-(4-Amino-3-methyl-1H-pyrazolo[3,4-d]pyrimidin-1-yl)ethyl]-7-chloro-4-(2-hydroxyethyl)-2-methyl-2,3,4,5-tetrahydro-1,4-benzoxazepine-6-carbonitrile] |
